Measured values reported in the kinase profiling compilation of Christmann-Franck et al. (2016).

Tests used:
Experiment in all cases: Caliper, Mobility shift assay off-chip
[1] = biological target: PDPK1 (human) (UniProt O15530)
[2] = biological target: AURKA (human) (UniProt O14965)
[3] = biological target: CAMK1D (human) (UniProt Q8IU85)
[4] = biological target: CAMK2G (human) (UniProt Q13555)
[5] = biological target: CAMK4 (human) (UniProt Q16566)
[6] = biological target: CDC42BPB (human) (UniProt Q9Y5S2)
[7] = biological target: CDK1 CCNB1 (human) (UniProt P06493+P14635)
Chain of CDK1 CCNB1 (human) (P06493 whole entry, looked up): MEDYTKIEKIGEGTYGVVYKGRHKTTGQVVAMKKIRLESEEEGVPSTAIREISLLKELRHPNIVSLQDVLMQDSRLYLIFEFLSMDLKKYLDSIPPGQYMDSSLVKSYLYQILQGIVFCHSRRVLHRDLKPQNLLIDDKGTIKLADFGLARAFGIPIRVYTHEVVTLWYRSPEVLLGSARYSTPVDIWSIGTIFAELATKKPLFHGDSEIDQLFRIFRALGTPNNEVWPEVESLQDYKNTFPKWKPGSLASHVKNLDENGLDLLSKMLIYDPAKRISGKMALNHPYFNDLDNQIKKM
Chain of CDK1 CCNB1 (human) (P14635 whole entry, looked up): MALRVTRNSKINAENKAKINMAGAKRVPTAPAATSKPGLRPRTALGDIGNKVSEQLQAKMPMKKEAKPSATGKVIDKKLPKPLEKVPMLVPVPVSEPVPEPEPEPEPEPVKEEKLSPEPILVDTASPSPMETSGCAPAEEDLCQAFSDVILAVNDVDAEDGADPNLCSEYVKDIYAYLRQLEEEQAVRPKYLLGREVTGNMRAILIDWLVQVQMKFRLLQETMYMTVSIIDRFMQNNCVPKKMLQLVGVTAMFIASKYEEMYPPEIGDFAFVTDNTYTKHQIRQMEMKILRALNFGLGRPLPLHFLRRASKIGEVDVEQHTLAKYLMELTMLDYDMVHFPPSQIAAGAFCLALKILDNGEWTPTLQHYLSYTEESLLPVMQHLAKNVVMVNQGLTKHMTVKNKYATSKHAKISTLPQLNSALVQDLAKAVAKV

[8] = biological target: CDK9 CCNT1 (human) (UniProt O60563+P50750)
[9] = biological target: CSNK1D (human) (UniProt P48730)
[10] = biological target: DAPK2 (human) (UniProt Q9UIK4)
[11] = biological target: DMPK (human) (UniProt Q09013)
[12] = system: EGFR (human), P00533 [L858R]
[13] = biological target: EPHA8 (human) (UniProt P29322)
[14] = biological target: EPHB2 (human) (UniProt P29323)
[15] = biological target: ERBB4 (human) (UniProt Q15303)
Chain of ERBB4 (human) (Q15303 whole entry, looked up): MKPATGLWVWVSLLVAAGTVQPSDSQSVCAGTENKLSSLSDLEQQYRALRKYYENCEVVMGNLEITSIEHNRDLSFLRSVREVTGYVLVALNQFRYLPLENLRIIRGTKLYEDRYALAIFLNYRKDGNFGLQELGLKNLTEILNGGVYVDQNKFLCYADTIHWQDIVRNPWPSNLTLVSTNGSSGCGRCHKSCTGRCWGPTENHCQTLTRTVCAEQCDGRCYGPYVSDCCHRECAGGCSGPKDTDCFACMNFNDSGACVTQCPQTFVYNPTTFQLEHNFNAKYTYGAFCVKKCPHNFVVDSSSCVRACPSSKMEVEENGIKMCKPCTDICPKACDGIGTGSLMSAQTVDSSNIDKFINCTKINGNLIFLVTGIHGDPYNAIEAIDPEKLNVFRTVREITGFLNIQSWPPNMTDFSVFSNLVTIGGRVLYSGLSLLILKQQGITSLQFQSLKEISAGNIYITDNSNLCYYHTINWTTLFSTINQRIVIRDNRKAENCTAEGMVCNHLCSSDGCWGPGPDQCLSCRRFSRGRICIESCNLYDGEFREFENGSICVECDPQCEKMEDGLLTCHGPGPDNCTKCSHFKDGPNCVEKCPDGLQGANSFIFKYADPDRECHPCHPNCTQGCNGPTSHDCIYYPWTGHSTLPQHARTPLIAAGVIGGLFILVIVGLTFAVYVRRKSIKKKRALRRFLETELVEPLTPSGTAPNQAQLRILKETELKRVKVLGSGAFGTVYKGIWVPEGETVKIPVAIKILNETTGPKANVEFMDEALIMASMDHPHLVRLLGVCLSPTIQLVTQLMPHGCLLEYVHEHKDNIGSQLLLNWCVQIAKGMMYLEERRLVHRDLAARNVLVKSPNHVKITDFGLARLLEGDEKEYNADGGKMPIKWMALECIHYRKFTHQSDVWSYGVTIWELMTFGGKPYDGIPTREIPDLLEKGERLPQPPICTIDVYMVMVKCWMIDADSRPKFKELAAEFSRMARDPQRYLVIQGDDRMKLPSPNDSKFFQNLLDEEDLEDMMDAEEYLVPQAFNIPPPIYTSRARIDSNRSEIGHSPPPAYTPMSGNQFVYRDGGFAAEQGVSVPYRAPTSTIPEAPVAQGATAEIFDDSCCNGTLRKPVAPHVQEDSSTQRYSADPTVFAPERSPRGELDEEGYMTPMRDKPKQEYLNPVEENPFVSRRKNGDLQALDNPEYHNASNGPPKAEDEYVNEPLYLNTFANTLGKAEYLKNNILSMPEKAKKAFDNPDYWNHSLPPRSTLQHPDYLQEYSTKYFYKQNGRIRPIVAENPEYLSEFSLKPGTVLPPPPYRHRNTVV

[16] = biological target: FES (human) (UniProt P07332)
[17] = biological target: FGFR4 (human) (UniProt P22455)
[18] = biological target: FYN (human) (UniProt P06241)
[19] = biological target: GRK6 (human) (UniProt P43250)
Chain of GRK6 (human) (P43250 whole entry, looked up): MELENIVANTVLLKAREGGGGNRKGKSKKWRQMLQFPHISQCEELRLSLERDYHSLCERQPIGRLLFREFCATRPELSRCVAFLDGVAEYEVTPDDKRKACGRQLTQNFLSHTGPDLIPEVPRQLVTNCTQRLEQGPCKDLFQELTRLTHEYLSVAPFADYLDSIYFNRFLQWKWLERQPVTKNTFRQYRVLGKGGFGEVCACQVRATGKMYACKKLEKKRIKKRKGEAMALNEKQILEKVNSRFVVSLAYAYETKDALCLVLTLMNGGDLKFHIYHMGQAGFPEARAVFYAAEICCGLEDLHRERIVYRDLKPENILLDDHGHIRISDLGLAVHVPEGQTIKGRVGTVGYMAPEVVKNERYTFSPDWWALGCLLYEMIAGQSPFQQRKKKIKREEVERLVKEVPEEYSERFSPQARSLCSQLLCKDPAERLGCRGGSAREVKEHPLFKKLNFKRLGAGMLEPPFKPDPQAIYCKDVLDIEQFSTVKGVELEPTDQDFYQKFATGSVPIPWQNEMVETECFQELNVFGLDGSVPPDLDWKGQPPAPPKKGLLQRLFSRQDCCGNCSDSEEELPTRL

[20] = biological target: GSG2 (human) (UniProt Q8TF76)
[21] = biological target: HCK (human) (UniProt P08631)
[22] = biological target: HIPK1 (human) (UniProt Q86Z02)
[23] = biological target: INSRR (human) (UniProt P14616)
[24] = biological target: IRAK4 (human) (UniProt Q9NWZ3)
[25] = system: KIT (human), P10721 [V560G]
[26] = biological target: MET (human) (UniProt P08581)
[27] = biological target: MST1R (human) (UniProt Q04912)
[28] = biological target: MUSK (human) (UniProt O15146)
[29] = biological target: MYLK3 (human) (UniProt Q32MK0)
[30] = biological target: NEK11 (human) (UniProt Q8NG66)
Chain of NEK11 (human) (Q8NG66 whole entry, looked up): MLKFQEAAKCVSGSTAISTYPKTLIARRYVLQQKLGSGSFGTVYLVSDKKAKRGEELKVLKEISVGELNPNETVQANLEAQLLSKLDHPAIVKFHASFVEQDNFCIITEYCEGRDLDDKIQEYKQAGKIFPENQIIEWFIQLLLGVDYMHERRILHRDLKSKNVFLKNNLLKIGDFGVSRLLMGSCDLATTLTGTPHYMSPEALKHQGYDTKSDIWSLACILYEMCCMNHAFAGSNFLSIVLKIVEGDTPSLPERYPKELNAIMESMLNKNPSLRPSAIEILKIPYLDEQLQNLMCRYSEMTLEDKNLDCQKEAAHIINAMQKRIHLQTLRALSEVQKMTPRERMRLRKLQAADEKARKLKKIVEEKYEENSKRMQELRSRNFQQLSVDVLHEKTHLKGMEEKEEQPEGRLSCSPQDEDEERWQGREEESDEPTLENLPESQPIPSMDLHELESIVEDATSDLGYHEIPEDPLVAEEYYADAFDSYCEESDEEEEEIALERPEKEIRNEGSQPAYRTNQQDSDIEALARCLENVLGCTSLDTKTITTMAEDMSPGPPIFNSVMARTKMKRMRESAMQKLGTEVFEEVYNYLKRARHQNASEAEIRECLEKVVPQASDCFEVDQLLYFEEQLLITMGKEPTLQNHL

[31] = biological target: PHKG2 (human) (UniProt P15735)
[32] = biological target: PKN2 (human) (UniProt Q16513)
[33] = biological target: PRKCD (human) (UniProt Q05655)
[34] = biological target: PRKG2 (human) (UniProt Q13237)
Chain of PRKG2 (human) (Q13237 whole entry, looked up): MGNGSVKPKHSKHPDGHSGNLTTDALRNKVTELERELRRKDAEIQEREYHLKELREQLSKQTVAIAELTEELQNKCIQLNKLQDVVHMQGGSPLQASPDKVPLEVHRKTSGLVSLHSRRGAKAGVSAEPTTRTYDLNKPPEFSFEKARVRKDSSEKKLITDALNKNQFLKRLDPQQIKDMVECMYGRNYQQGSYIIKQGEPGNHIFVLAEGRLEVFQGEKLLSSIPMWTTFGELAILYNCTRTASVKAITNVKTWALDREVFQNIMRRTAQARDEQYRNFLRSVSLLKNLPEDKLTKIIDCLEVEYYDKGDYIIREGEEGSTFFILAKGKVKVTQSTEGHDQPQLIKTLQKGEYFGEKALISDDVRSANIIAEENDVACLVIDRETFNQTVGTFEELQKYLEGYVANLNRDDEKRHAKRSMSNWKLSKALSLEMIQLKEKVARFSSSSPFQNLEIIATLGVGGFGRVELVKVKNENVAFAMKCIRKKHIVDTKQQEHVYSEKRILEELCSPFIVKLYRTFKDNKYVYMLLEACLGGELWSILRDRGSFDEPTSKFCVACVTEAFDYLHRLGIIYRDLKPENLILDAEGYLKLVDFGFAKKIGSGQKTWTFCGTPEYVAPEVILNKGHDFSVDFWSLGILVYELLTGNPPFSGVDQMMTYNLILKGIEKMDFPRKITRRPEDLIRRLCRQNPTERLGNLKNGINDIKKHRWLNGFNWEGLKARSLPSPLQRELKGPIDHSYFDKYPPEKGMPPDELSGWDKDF

[35] = biological target: PTK6 (human) (UniProt Q13882)
Chain of PTK6 (human) (Q13882 whole entry, looked up): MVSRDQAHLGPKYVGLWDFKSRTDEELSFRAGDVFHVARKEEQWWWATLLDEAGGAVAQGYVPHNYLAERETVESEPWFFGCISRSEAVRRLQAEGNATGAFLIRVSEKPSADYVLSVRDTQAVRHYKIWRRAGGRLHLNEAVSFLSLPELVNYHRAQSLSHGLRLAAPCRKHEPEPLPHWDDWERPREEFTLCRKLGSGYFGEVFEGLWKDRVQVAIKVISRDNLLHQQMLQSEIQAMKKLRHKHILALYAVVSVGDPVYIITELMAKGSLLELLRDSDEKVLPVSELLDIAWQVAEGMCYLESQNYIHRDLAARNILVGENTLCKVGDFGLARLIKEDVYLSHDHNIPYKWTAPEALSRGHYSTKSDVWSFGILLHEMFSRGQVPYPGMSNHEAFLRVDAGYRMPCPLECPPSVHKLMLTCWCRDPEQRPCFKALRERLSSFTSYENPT

[36] = biological target: RET (human) (UniProt P07949)
[37] = biological target: RPS6KA3 KD1 KD2 (human) (UniProt P51812)
[38] = biological target: STK11 (human) (UniProt Q15831)
[39] = biological target: SYK (human) (UniProt P43405)
[40] = biological target: TAOK3 (human) (UniProt Q9H2K8)
[41] = biological target: TYRO3 (human) (UniProt Q06418)

Chain of PDPK1 (human) (O15530 whole entry, looked up): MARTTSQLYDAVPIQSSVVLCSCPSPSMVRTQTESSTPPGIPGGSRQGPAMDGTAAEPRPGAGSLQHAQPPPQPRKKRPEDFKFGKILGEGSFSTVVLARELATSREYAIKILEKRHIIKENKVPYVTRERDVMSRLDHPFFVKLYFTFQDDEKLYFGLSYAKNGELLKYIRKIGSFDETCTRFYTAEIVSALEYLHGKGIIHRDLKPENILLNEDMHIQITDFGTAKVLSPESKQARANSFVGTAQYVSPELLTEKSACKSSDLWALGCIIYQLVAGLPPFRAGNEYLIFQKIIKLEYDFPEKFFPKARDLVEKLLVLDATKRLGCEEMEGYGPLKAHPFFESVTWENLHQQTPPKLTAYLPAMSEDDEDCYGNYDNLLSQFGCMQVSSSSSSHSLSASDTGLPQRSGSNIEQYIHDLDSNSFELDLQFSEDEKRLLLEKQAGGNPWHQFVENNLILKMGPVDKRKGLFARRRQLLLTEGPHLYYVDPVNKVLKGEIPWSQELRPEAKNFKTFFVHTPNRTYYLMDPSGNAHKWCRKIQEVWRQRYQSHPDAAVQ

With `CC(C)(C)c1nc2c3ccc(F)cc3c3c(=O)[nH]ccc3c2[nH]1` the residual activity ([1]; compound 10.0 µM) was 0%.
For `COc1ccc(C#Cc2ccc3ncc4ncn(-c5ccc(CCN)cc5)c4c3c2)cc1`, the residual activity ([2]; compound 10.0 µM) was 8%, the residual activity ([3]; compound 10.0 µM) was 47% and the residual activity ([4]; compound 10.0 µM) was 58%. The residual activity ([5]; compound 10.0 µM) was 69%, the residual activity ([6]; compound 10.0 µM) was 111% and the residual activity ([7]; compound 10.0 µM) was 90%. The residual activity ([8]; compound 10.0 µM) was 126%, the residual activity ([9]; compound 10.0 µM) was 35% and the residual activity ([10]; compound 10.0 µM) was 85%. It also gave a residual activity ([11]; compound 10.0 µM) of 97%, a residual activity ([12]; compound 10.0 µM) of 50% and a residual activity ([13]; compound 10.0 µM) of 91%. For the same molecule, the residual activity ([14]; compound 10.0 µM) was 99%, the residual activity ([15]; compound 10.0 µM) was 116% and the residual activity ([16]; compound 10.0 µM) was 69%. It also gave a residual activity ([17]; compound 10.0 µM) of 44%, a residual activity ([18]; compound 10.0 µM) of 114% and a residual activity ([19]; compound 10.0 µM) of 108%. It also gave a residual activity ([20]; compound 10.0 µM) of 0%, a residual activity ([21]; compound 10.0 µM) of 63% and a residual activity ([22]; compound 10.0 µM) of 78%. For the same molecule, the residual activity ([23]; compound 10.0 µM) was 71%, the residual activity ([24]; compound 10.0 µM) was 73% and the residual activity ([25]; compound 10.0 µM) was 18%. The residual activity ([26]; compound 10.0 µM) was 17%, the residual activity ([27]; compound 10.0 µM) was 106% and the residual activity ([28]; compound 10.0 µM) was 99%. The residual activity ([29]; compound 10.0 µM) was 29%, the residual activity ([30]; compound 10.0 µM) was 51% and the residual activity ([1]; compound 10.0 µM) was 43%. The residual activity ([31]; compound 10.0 µM) was 33%, the residual activity ([32]; compound 10.0 µM) was 13% and the residual activity ([33]; compound 10.0 µM) was 134%. The residual activity ([34]; compound 10.0 µM) was 34%, the residual activity ([35]; compound 10.0 µM) was 81% and the residual activity ([36]; compound 10.0 µM) was 9%. It also gave a residual activity ([37]; compound 10.0 µM) of 24%, a residual activity ([38]; compound 10.0 µM) of 104% and a residual activity ([39]; compound 10.0 µM) of 33%. It also gave a residual activity ([40]; compound 10.0 µM) of 66% and a residual activity ([41]; compound 10.0 µM) of 19%.
With `C[C@@H](Nc1nc2c(C#CC3CC3)c[nH]c(=O)c2c2cc(-c3cn[nH]c3)ccc12)C(C)(C)C` the residual activity ([2]; compound 1.0 µM) was 7%, the residual activity ([3]; compound 1.0 µM) was 55% and the residual activity ([4]; compound 1.0 µM) was 13%. The residual activity ([5]; compound 1.0 µM) was 22%, the residual activity ([6]; compound 1.0 µM) was 99% and the residual activity ([7]; compound 1.0 µM) was 100%. For the same molecule, the residual activity ([8]; compound 1.0 µM) was 96%, the residual activity ([9]; compound 1.0 µM) was 105% and the residual activity ([10]; compound 1.0 µM) was 36%. It also gave a residual activity ([11]; compound 1.0 µM) of 100%, a residual activity ([12]; compound 1.0 µM) of 76% and a residual activity ([13]; compound 1.0 µM) of 108%. The residual activity ([14]; compound 1.0 µM) was 92%, the residual activity ([15]; compound 1.0 µM) was 102% and the residual activity ([16]; compound 1.0 µM) was 92%. For the same molecule, the residual activity ([17]; compound 1.0 µM) was 105%, the residual activity ([18]; compound 1.0 µM) was 79% and the residual activity ([19]; compound 1.0 µM) was 101%. It also gave a residual activity ([20]; compound 1.0 µM) of 158%, a residual activity ([21]; compound 1.0 µM) of 31% and a residual activity ([22]; compound 1.0 µM) of 109%. It also gave a residual activity ([23]; compound 1.0 µM) of 104%, a residual activity ([24]; compound 1.0 µM) of 122% and a residual activity ([25]; compound 1.0 µM) of 9%. It also gave a residual activity ([26]; compound 1.0 µM) of 96%, a residual activity ([27]; compound 1.0 µM) of 98% and a residual activity ([28]; compound 1.0 µM) of 96%. For the same molecule, the residual activity ([29]; compound 1.0 µM) was 53%, the residual activity ([30]; compound 1.0 µM) was 116% and the residual activity ([1]; compound 1.0 µM) was 2%. It also gave a residual activity ([31]; compound 1.0 µM) of 76%, a residual activity ([32]; compound 1.0 µM) of 10% and a residual activity ([33]; compound 1.0 µM) of 79%. For the same molecule, the residual activity ([34]; compound 1.0 µM) was 88%, the residual activity ([35]; compound 1.0 µM) was 105% and the residual activity ([36]; compound 1.0 µM) was 1%. For the same molecule, the residual activity ([37]; compound 1.0 µM) was 5%, the residual activity ([38]; compound 1.0 µM) was 96% and the residual activity ([39]; compound 1.0 µM) was 105%. It also gave a residual activity ([40]; compound 1.0 µM) of 104% and a residual activity ([41]; compound 1.0 µM) of 94%.
